Assay results from patent publication US6914045B2, “Glycopeptide antibiotics” (Wyeth Holdings Corporation, priority 2001, dated 2005).
In brackets after ≈: the same amount, converted by molar mass.

Legend:
Test in all cases: in vitro antibacterial evaluation, MIC by broth dilution
Type in all cases: cell-based
Escherichia coli = tested on: Escherichia coli
Method in brief: (§1)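 MIC = lowest antibiotic concentration preventing visible growth; inoculum 5×10^5 CFU/mL; drug range 64-0.06 μg/mL; Muller-Hinton II […]; NCCLS M7-A2 guidance.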

Enterococcus sp. = details: broth dilution, 18 hours at 35° C.; for MIC Enterococcus faecalis (ATCC 29212): strain ATCC 29212; for MIC Enterococcus faecium (GC 2243): strain GC 2243; for MIC Enterococcus faecalis (GC 4554): strain GC 4554; for MIC Enterococcus faecium (GC 4556): strain GC 4556; for MIC Enterococcus faecium (GC 4557): strain GC 4557; for MIC Enterococcus avium (GC 4558): strain GC 4558; for MIC Enterococcus faecalis (GC 6189): strain GC 6189
Method in brief: as §1

Staphylococcus sp. = details: broth dilution, 18 hours at 35° C.
Method in brief: as §1

Streptococcus sp. = details: broth dilution, 18 hours at 35° C.
Method in brief: as §1

CC(c1ccccc1)C1NC(=O)CNC(=O)C(CO)NC(=O)C(C(O)C2CNC(=N)N2C2OC(CO)C(O)C(O)C2O)NC(=O)C(C(O)C2CNC(=NC(=O)C(C)(C)C)N2)NC(=O)C(Cc2ccc(OC3OC(CO)C(OC4OC(CO)C(O)C(O)C4O)C(O)C3O)cc2)NC1=O (stereo not shown) [Example 155]
MIC Escherichia coli (ATCC 25922) (Escherichia coli; strain ATCC 25922, 18 hours at 35° C.): >64 µg/mL
MIC Escherichia coli (GC 4559) (Escherichia coli; strain GC 4559, 18 hours at 35° C.): >64 µg/mL
MIC Escherichia coli (GC 4560) (Escherichia coli; strain GC 4560, 18 hours at 35° C.): 0.5 to 2 µg/mL
MIC Enterococcus faecalis (GC 2242) (Enterococcus sp.; Enterococcus faecalis (GC 2242)): 0.5 to 1 µg/mL
MIC Enterococcus faecalis (GC 2691) (Enterococcus sp.; Enterococcus faecalis (GC 2691)): 0.5 µg/mL (≈ 0.362 µM)
MIC Enterococcus faecalis (GC 3059) (Enterococcus sp.; Enterococcus faecalis (GC 3059)): 0.5 µg/mL (≈ 0.362 µM)
MIC Enterococcus faecalis (ATCC 29212) (Enterococcus sp.; inoculum 5×10^5 CFU/mL): 0.5 to 1 µg/mL
MIC Enterococcus faecium (GC 2243) (Enterococcus sp.; inoculum 5×10^5 CFU/mL): <0.5 to 1 µg/mL
MIC Enterococcus faecalis (GC 4554) (Enterococcus sp.; inoculum 5×10^5 CFU/mL): 0.5 to 1 µg/mL
MIC Enterococcus faecium (GC 4556) (Enterococcus sp.; inoculum 5×10^5 CFU/mL): 1 to 2 µg/mL
MIC Enterococcus faecium (GC 4557) (Enterococcus sp.; inoculum 5×10^5 CFU/mL): 1 to 2 µg/mL
MIC Enterococcus avium (GC 4558) (Enterococcus sp.; inoculum 5×10^5 CFU/mL): 0.5 to 1 µg/mL
MIC Enterococcus faecalis (GC 6189) (Enterococcus sp.; inoculum 5×10^5 CFU/mL): 0.5 µg/mL (≈ 0.362 µM)
MIC Enterococcus faecalis (ATCC 29212) (Enterococcus sp.): 0.5 to 1 µg/mL
MIC Enterococcus faecalis (GC 2242) (Enterococcus sp.; strain GC 2242): 0.5 to 1 µg/mL
MIC Enterococcus faecium (GC 2243) (Enterococcus sp.): <0.5 to 1 µg/mL
MIC Enterococcus faecalis (GC 2691) (Enterococcus sp.; strain GC 2691): 0.5 µg/mL (≈ 0.362 µM)
MIC Enterococcus faecalis (GC 3059) (Enterococcus sp.; strain GC 3059): 0.5 µg/mL (≈ 0.362 µM)
MIC Enterococcus faecalis (GC 4554) (Enterococcus sp.): 0.5 to 1 µg/mL
MIC Enterococcus faecium (GC 4556) (Enterococcus sp.): 1 to 2 µg/mL
MIC Enterococcus faecium (GC 4557) (Enterococcus sp.): 1 to 2 µg/mL
MIC Enterococcus avium (GC 4558) (Enterococcus sp.): 0.5 to 1 µg/mL
MIC Enterococcus faecalis (GC 6189) (Enterococcus sp.): 0.5 µg/mL (≈ 0.362 µM)
MIC Staphylococcus aureus (GC 3051) (Staphylococcus sp.; strain GC 3051): 0.5 µg/mL (≈ 0.362 µM)
MIC Staphylococcus aureus (GC 3053) (Staphylococcus sp.; strain GC 3053): 0.5 µg/mL (≈ 0.362 µM)
MIC Staphylococcus aureus (GC 4545) (Staphylococcus sp.; strain GC 4545): 0.5 to 1 µg/mL
MIC Staphylococcus haemolyticus (GC 4546) (Staphylococcus sp.; strain GC 4546): <0.5 to 1 µg/mL
MIC Coagulase Negative Staphylococcus (GC 4547) (Staphylococcus sp.; strain GC 4547): <0.5 to 2 µg/mL
MIC Coagulase Negative Staphylococcus (GC 4548) (Staphylococcus sp.; strain GC 4548): <0.5 to 1 µg/mL
MIC Coagulase Negative Staphylococcus (GC 4549) (Staphylococcus sp.; strain GC 4549): <0.5 to 1 µg/mL
MIC Coagulase Negative Staphylococcus (GC 4551) (Staphylococcus sp.; strain GC 4551): <0.5 to 1 µg/mL
MIC Coagulase Negative Staphylococcus (GC 6257) (Staphylococcus sp.; strain GC 6257): 1 µg/mL (≈ 0.725 µM)
MIC Coagulase Negative Staphylococcus (ID-3941) (Staphylococcus sp.; strain ID-3941): <0.5 µg/mL
MIC Streptococcus agalactiae (GC 4564) (Streptococcus sp.; Streptococcus agalactiae (GC 4564)): <0.12 µg/mL
MIC Streptococcus pneumoniae (ATCC 6301) (Streptococcus sp.; Streptococcus pneumoniae (ATCC 6301)): 0.12 µg/mL (≈ 0.087 µM)
MIC Streptococcus pneumoniae (GC 1894) (Streptococcus sp.; Streptococcus pneumoniae (GC 1894)): 0.12 µg/mL (≈ 0.087 µM)
MIC Streptococcus pyogenes (GC 4563) (Streptococcus sp.; Streptococcus pyogenes (GC 4563)): >0.12 µg/mL
MIC Streptococcus pyogenes (ID-3187) (Streptococcus sp.; Streptococcus pyogenes (ID-3187)): <0.5 µg/mL
MIC Streptococcus pneumoniae (ATCC 6301) (Streptococcus sp.; strain ATCC 6301): 0.12 µg/mL (≈ 0.087 µM)
MIC Streptococcus pneumoniae (GC 1894) (Streptococcus sp.; strain GC 1894): 0.12 µg/mL (≈ 0.087 µM)
MIC Streptococcus pyogenes (GC 4563) (Streptococcus sp.; strain GC 4563): >0.12 µg/mL
MIC Streptococcus agalactiae (GC 4564) (Streptococcus sp.; strain GC 4564): <0.12 µg/mL
MIC Streptococcus pyogenes (ID-3187) (Streptococcus sp.; strain ID-3187): <0.5 µg/mL
